Experimental data from ChEMBL document CHEMBL4477261, “Design, synthesis and evaluation of the multidrug resistance-reversing activity of pyridine acid esters of podophyllotoxin in human leukemia cells” (Bioorg Med Chem Lett, 2016).
Structures can show the parent of a compound that is named as a salt.

Columns and labels:
K562/Adr = assay: Antiproliferative activity against human K562/ADR cells after 72 hrs by CCK8 assay; assay type: functional, cell-based
K562 [1] = assay: Antiproliferative activity against human K562 cells after 72 hrs by CCK8 assay; assay type: functional, cell-based; details: K562, 72 h
K562 [2] = assay: Resistance factor, ratio of IC50 for human K562/ADR cells to IC50 for human K562 cells; assay type: functional

SMILES	IC50 (K562/Adr)	IC50 (K562 [1])	Ratio IC50 (K562 [2])
COc1cccc2c1C(=O)c1c(O)c3c(c(O)c1C2=O)C[C@@](O)(C(=O)CO)C[C@@H]3O[C@H]1C[C@H](N)[C@H](O)[C@H](C)O1 [DOXORUBICIN HYDROCHLORIDE]	18800 nM	220 nM	
COc1cc([C@@H]2c3cc4c(cc3[C@H](OC(=O)c3cccnc3)[C@H]3COC(=O)[C@H]23)OCO4)cc(OC)c1OC [4-O-PODOPHYLLOTOXINYL-NICOTINATE]	137 nM	33 nM	4.151
COc1cc([C@@H]2c3cc4c(cc3[C@H](OC(=O)c3ccncc3)[C@H]3COC(=O)[C@H]23)OCO4)cc(OC)c1OC [4-O-PODOPHYLLOTOXINYL-ISONICOTINATE]	48 nM	11 nM	4.363
COc1cc([C@@H]2c3cc4c(cc3[C@H](OC(=O)c3ccc(Br)cn3)[C@H]3COC(=O)[C@H]23)OCO4)cc(OC)c1OC	160 nM	19 nM	8.421
COc1cc([C@@H]2c3cc4c(cc3[C@H](OC(=O)c3ccnc(Br)c3)[C@H]3COC(=O)[C@H]23)OCO4)cc(OC)c1OC	58 nM	23 nM	2.521
COc1ccc(C(=O)O[C@H]2c3cc4c(cc3[C@@H](c3cc(OC)c(OC)c(OC)c3)[C@H]3C(=O)OC[C@@H]32)OCO4)cn1	123 nM	58 nM	2.12
